Test results as given in patent US7109192B2, “Substituted imidazo-pyridinones and imidazo-pyridazinones, the preparation thereof and their use as pharmaceutical compositions” (Boehringer Ingelheim Pharma GmbH & Co KG, priority 2002, dated 2006).
Counter-ions that a name gives are not always drawn.

system: rats; test: Tolerability in rats after oral administration; assay type: in vivo, rat; details: 10 mg/kg

| SMILES | changes in the animals' behaviour |
| --- | --- |
| CC#CCn1c(N2CCCC(N)C2)nc2cnn(Cc3cccc4ccccc34)c(=O)c21 (stereo not shown) [Example 2, 2-(3-amino-piperidin-1-yl)-3-(but-2-ynyl)-5-(naphthalen-1-ylmethyl)-3,5-dihydro-imidazo[4,5-d]pyridazin-4-one] | no changes in the animals' behaviour could be detected |

biological target: T1, DPP-IV (Homo sapiens, UniProt P27487); test: DPP-IV inhibition assay with Caco-2 cell extract, AFC substrate, fluorescence; assay type: biochemical; details: extract of human colon carcinoma cell line Caco-2 as DPP IV source; 100 μM AFC substrate; 60 minutes, ambient temperature
T1 construct: an extract of human colon carcinoma cell line Caco-2 is used as the DPP IV source; endogenous in cells; host or cells: Caco-2 (human colon carcinoma), differentiated to induce DPP-IV expression; Nonidet-P40 solubilised extract
T1 sequence (P27487 whole entry): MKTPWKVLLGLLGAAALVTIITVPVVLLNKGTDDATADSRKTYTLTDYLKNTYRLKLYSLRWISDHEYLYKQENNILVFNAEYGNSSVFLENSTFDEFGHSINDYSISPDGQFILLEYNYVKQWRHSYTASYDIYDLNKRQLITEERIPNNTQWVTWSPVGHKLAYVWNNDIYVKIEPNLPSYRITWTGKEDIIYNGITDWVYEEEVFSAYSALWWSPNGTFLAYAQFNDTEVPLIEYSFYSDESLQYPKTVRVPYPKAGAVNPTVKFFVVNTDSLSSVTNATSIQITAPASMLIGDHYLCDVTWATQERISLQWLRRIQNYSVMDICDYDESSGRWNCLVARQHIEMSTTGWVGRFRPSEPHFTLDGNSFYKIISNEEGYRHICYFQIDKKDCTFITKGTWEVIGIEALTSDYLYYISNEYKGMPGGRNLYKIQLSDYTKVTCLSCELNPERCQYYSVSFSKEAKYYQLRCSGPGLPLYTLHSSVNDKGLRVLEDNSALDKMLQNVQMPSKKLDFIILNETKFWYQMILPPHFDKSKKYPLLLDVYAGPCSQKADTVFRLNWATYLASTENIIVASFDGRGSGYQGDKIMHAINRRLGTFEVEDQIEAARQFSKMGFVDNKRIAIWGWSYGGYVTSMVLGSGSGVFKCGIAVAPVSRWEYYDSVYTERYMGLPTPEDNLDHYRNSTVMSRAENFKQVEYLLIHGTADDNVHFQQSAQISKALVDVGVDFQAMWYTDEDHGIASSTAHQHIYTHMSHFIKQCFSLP
Procedure: The cell extract was obtained from cells solubilised in a buffer (10 mM Tris HCl, 0.15 M NaCl, 0.04 t.i.u. aprotinin, 0.5% Nonidet-P40, pH 8.0) by centrifuging at 35,000 g for 30 minutes at 4° C. (to remove cell debris).
The DPP-IV assay was carried out as follows:
50 μl substrate solution (AFC; AFC is amido-4-trifluoromethylcoumarin), final concentration 100 μM, were placed in black microtitre plates. 20 μl of assay buffer (final concentrations 50 mM Tris HCl pH 7.8, 50 mM NaCl, 1% DMSO) was pipetted in. The reaction was started by adding 30 μl of solubilised Caco-2 protein (final concentration 0.14 μg of protein per well). The test substances to be investigated were typically added prediluted in 20 μl, and the volume of assay buffer was then reduced accordingly. The reaction was carried out at ambient temperature, incubating for 60 minutes. […] Blank readings (corresponding to 0% activity) were obtained in mixtures without any Caco-2 protein (volume replaced by assay buffer), control values (corresponding to 100% activity) were obtained in mixtures with no substance added.

| IC50 [nM] | SMILES |
| --- | --- |
| 1.2 | CC#CCn1c(N2CCCC(N)C2)nc2cnn(Cc3ccc4nccnc4c3)c(=O)c21 (stereo not shown) [Example 182, 2-(3-amino-piperidin-1-yl)-3-(but-2-ynyl)-5-(quinoxalin-6-ylmethyl)-3,5-dihydro-imidazo[4,5-d]pyridazin-4-one] |
| 14 | CC#CCn1c(N2CCC[C@@H](N)C2)nc2cnn(Cc3ccc(F)c4ccccc34)c(=O)c21 [Example 191, 2-((R)-3-amino-piperidin-1-yl)-3-(but-2-ynyl)-5-(4-fluoronaphthalen-1-ylmethyl)-3,5-dihydro-imidazo[4,5-d]pyridazin-4-one hydrochloride] |
| 17 | CC#CCn1c(N2CCC[C@@H](N)C2)nc2cnn(Cc3nc4cc(C(F)(F)F)ccc4s3)c(=O)c21 [Example 195, 2-((R)-3-amino-piperidin-1-yl)-3-(but-2-ynyl)-5-(5-trifluoromethylbenzothiazol-2-ylmethyl)-3,5-dihydro-imidazo[4,5-d]pyridazin-4-one hydrochloride] |
| 9.8 | CC#CCn1c(N2CCC[C@@H](N)C2)nc2cnn(Cc3ccc4nonc4c3)c(=O)c21 [Example 202, 2-((R)-3-amino-piperidin-1-yl)-3-(but-2-ynyl)-5-(benzo[1,2,5]oxadiazol-5-ylmethyl)-3,5-dihydro-imidazo[4,5-d]pyridazin-4-one] |
| 5.4 | Cc1cc2ccccc2c(Cn2ncc3nc(N4CCC[C@@H](N)C4)n(Cc4ccccc4Cl)c3c2=O)n1 [Example 205, 2-((R)-3-amino-piperidin-1-yl)-3-(2-chlorobenzyl)-5-(3-methyl-isoquinolin-1-ylmethyl)-3,5-dihydro-imidazo[4,5-d]pyridazin-4-one] |
| 10 | CC#CCn1c(N2CCC[C@@H](N)C2)nc2cnn(Cc3cn(C)c(=O)c4ccccc34)c(=O)c21 [Example 217, 2-((R)-3-amino-piperidin-1-yl)-3-(but-2-ynyl)-5-(2-methyl-2H-isoquinolin-1-on-4-ylmethyl)-3,5-dihydro-imidazo[4,5-d]pyridazin-4-one] |
